Counter-ions that a name gives are not always drawn.
What was measured:
vertebral arteria = assay: Cerebral vasodilating activity: hematic flow at the vertebral arteria after i.v. administration; type: in vivo; conditions: i.v. (femoral vein), 5 mg/kg of vincamine/apovincamine, anesthetized dog, 4 animals per compound
Experimental: (§1) For the compounds of the present invention a number of pharmacological and pharmacokinetic tests have been carried out. […] As regards the pharmacological and pharmacodynamic activity, it has been studied on the percent variations of the hematic flow, as recorded at the vertebral arteria in the dog after administration of the tested compounds. As regards the pharmacokinetic tests, the compounds were administered per oral route to the Wistar rat, and the hematic levels at different times from the administration were measured.
The cerebral vasodilating activity was studied in the anestetized dog, by measuring, by means of Statham periarterial electromagnetic flowmeters, the hematic flow at the level of the […] which, in such animal species, constitutes the greatest blood supply to the brain.
The resuls are reported in the TABLE 2 (last column) as the percent variations of the flow measured at the level of the ledt vertebral arteria after the i.v. administration of the several compounds to be tested to groups of 4 animals for each compound. The results also confirm that the compounds of the invention are all endowed with a vasodilating activity at the level of the cerebral circulus, such an action being, for some compounds, much more remarkable than that of vincamine and apovincamine.

[1] = LD50 / acute toxicity, intraperitoneal route; type: in vivo; conditions: i.p.; for Toxicity (Gleason): Gleason class in words, classes not defined
[2] = Hematic levels at different times after oral administration (absorption); type: in vivo, Wistar rat; conditions: 100 mg/kg expressed as vincamine/apovincamine, 5% carboxymethyl cellulose suspension; for Tmax: rat, blood, po, read-out: Max. conc. time (converted)
Experimental: as §1
For the evaluation of the absorption, all the compounds have been orally administered at the dosage of 100 mg/kg, expressed as vincamine and apovincamine, in form of a suspension in a 5% carboxymethyl cellulose solution.
The absorption was determined by evaulating the hematic levels at the following times (minutes) : 0, 30, 120, 240, 480, 10 hours and 12 hours, in order also to assess the time from the administration (max conc.time) the maximum absorption occurred.
The vincamine and apovincamine concentrations were assessed by chromatographic method.
For the evaluation of the prolonged action of the salts and of the adducts of vincamine and apovincamine the following criterium was adopted; as derivatives having a long-acting effect, there are considered those which, 120 minutes after the administration, show hematic levels higher than those obtained with vincamine and apovincamine.

Solubility = type: physicochemical; conditions: qualitative; for solubility in alcohol: alcohol (ethyl alcohol)

Row | Molecule | % increase (percent variation of hematic flow, left vertebral arteria) (vertebral arteria; 5 mg/kg) [%] | LD50 [1] [mg/kg] | Toxicity (Gleason) [1] | Max. conc. time ([2]; 100 mg/kg) [min] | solubility in alcohol (Solubility) | solubility in water (Solubility) | further results
1 | CC[C@@]12C=C(C(=O)OC)n3c4c(c5ccccc53)CCN(CCC1)[C@H]42 [Apovincamine, apovincamine] | 25.6 | 2000 | negligible | 60 | – | – | –
2 | CC[C@]12CCCN3CCc4c(n(c5ccccc45)[C@@](O)(C(=O)OC)C1)[C@@H]32 [Example 2.a, Vincamine 2,4-dihydroxy-benzoate] | 24.8 | 750 | modest | 120 | soluble | – | –
3 | CC[C@@]12C=C(C(=O)OC)n3c4c(c5ccccc53)CCN(CCC1)[C@H]42 [Example 2.b, Apovineamine 2,4-dihydroxy-benzoate] | 29.0 | 650 | modest | 120 | soluble | – | solubility in the common (organic) solvents (Solubility; common organic solvents): not
4 | CC[C@]12CCCN3CCc4c(n(c5ccccc45)[C@@](O)(C(=O)OC)C1)[C@@H]32 [Example 3.a, Vincamine glucose-1-phosphate] | 29.0 | 1150 | light | 240 | – | partially soluble | –
5 | CC[C@@]12C=C(C(=O)OC)n3c4c(c5ccccc53)CCN(CCC1)[C@H]42 [Example 3.b, Apovincamine glucose-1-phosphate] | 26.4 | 850 | modest | 120 | – | soluble | –
6 | CC[C@]12CCCN3CCc4c(n(c5ccccc45)[C@@](O)(C(=O)OC)C1)[C@@H]32 [Example 4.a, Vincamine glucose-1-phosphate, acid salt] | 26.6 | 700 | modest | 240 | – | soluble | –
7 | CC[C@@]12C=C(C(=O)OC)n3c4c(c5ccccc53)CCN(CCC1)[C@H]42 [Example 4.b, Apovincamine glucose-1-phosphate, acid salt] | 26.1 | 600 | modest | 240 | – | soluble | –
8 | CC[C@]12CCCN3CCc4c(n(c5ccccc45)[C@@](O)(C(=O)OC)C1)[C@@H]32 [Example 4.c, glucose-6-phosphate acid salt] | 28.2 | 800 | modest | 240 | – | – | –
9 | CC[C@]12CCCN3CCc4c(n(c5ccccc45)[C@@](O)(C(=O)OC)C1)[C@@H]32 [Example 5.a, Vincamine 2,6-dihydroxybenzoate] | 23.6 | 550 | modest | 120 | insoluble | insoluble | –
10 | CC[C@@]12C=C(C(=O)OC)n3c4c(c5ccccc53)CCN(CCC1)[C@H]42 [Example 5.b, Apovincamine 2,6-dihydroxybenzoate] | 25.4 | 750 | modest | 120 | poorly soluble | insoluble | –
11 | CC[C@@]12C=C(C(=O)OC)n3c4c(c5ccccc53)CCN(CCC1)[C@H]42 [Example 12.b, Apovincamine furoate] | 24.0 | – | – | 240 | soluble | insoluble | –
12 | CC[C@@]12C=C(C(=O)OC)n3c4c(c5ccccc53)CCN(CCC1)[C@H]42 [Example 13.b, Apovincamine D(+)-camphorsulfonate] | 37.4 | – | – | 120 | soluble | soluble | –
13 | CC[C@]12CCCN3CCc4c(n(c5ccccc45)[C@@](O)(C(=O)OC)C1)[C@@H]32 [Example 15.a, nicotinate] | 21.9 | 900 | modest | 60 | – | – | –
14 | CC[C@]12CCC[N+]3(C)CCc4c(n(c5ccccc45)[C@@](O)(C(=O)OC)C1)[C@H]23 (some centres unmarked) [Example 17.a, Vincamine methylsulfate] | – | – | – | – | soluble | soluble | % increase (percent variation of hematic flow, left vertebral arteria) (vertebral arteria): 28.4%; Tmax ([2]; 100 mg/kg): 1 h
15 | CC[C@@]12C=C(C(=O)OC)n3c4c(c5ccccc53)CC[N+](C)(CCC1)[C@H]42 (some centres unmarked) [Example 17.b, Apovincamine methylsulfate] | – | – | – | – | poorly soluble | soluble | % increase (percent variation of hematic flow, left vertebral arteria) (vertebral arteria): 29.7%; Tmax ([2]; 100 mg/kg): 1 h
16 | CC[C@@]12C=C(C(=O)OC)n3c4c(c5ccccc53)CCN(CCC1)[C@H]42 [Example 20.b, Apovincamine theophylline-7-acetate] | 27.2 | – | – | 120 | – | soluble | –
17 | CC[C@@]12C=C(C(=O)OC)n3c4c(c5ccccc53)CCN(CCC1)[C@H]42 [Example 25.b, Apovincamine (D,L)-mandelate] | 34.5 | – | – | 120 | soluble | insoluble | –
18 | CC[C@]12CCCN3CCc4c(n(c5ccccc45)[C@@](O)(C(=O)OC)C1)[C@@H]32 [Vincamine HCl, reference compound] | – | – | – | – | – | – | % increase (percent variation of hematic flow, left vertebral arteria) (vertebral arteria; HCl, 5 mg/kg): 24.1%; Toxicity (Gleason) ([1]; HCl): modest; LD50 ([1]; HCl): 800 mg/kg; Max. conc. time ([2]; HCl, 100 mg/kg): 20 min
19 | Apovincamine tannate [Example 24.b] | – | – | – | – | – | insoluble | % increase (percent variation of hematic flow, left vertebral arteria) (vertebral arteria): 29.8%; Max. conc. time [2]: 480 min
20 | glucose-6-phosphate [Example 3.c] | 28.4 | 1000 | light | 240 | – | – | –
21 | glucose-6-phosphate [Example 3.d] | 28.8 | 900 | modest | 120 | – | – | –
22 | glucose-6-phosphate disodium [Example 1.c] | – | 2000 | negligible | – | – | – | % increase (percent variation of hematic flow, left vertebral arteria) (vertebral arteria; disodium, 5 mg/kg): 26.3%; Max. conc. time ([2]; disodium, 100 mg/kg): 480 min
23 | glucose-6-phosphate disodium [Example 1.d] | – | 2000 | negligible | – | – | – | % increase (percent variation of hematic flow, left vertebral arteria) (vertebral arteria; disodium, 5 mg/kg): 29.3%; Max. conc. time ([2]; disodium, 100 mg/kg): 120 min
